The source made the active and inactive calls.
Legend:
[1] = target: Cytochrome P450 2C9 (Homo sapiens, UniProt P11712)
[2] = target: Cytochrome P450 3A4 (Homo sapiens, UniProt P08684);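 note: CYP3A4 tested as one member of a cytochrome P450 panel screen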
[3] = decrease of insulin promoter-GFP reporter – imaging, high-content screening, mouse beta cells (AID 1628); type: functional; conditions: MIN6
[4] = tested on: Vero; assay: cells; type: functional; conditions: Chlorocebus sabaeus
[5] = Trypanosoma cruzi growth suppression in host cells – NIH3T3 host cells, beta-gal luminescence, confirmation (AID 2044); type: functional, cell-based;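 note: intracellular parasites grown in NIH/3T3 mouse fibroblasts as host cells; luminescent beta-galactosidase reporter signal from transgenic T. cruzi replicating inside host cells; inhibitors lower the luminescence signal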
[6] = NIH3T3 cell viability loss – ATP luminescence, mouse fibroblasts, counter-screen, dose response (AID 2010); type: functional, cell-based;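 note: cells exposed to compound for about 90 hours before reading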
[7] = target: T1, DNA repair and recombination protein RAD54-like (Homo sapiens, UniProt Q92698); assay: RAD54 Holliday junction migration blockers – biochemical, fluorescence, cherry-picked samples, dose series, confirmation (AID 651657); type: functional
T1 sequence (Q92698 whole entry): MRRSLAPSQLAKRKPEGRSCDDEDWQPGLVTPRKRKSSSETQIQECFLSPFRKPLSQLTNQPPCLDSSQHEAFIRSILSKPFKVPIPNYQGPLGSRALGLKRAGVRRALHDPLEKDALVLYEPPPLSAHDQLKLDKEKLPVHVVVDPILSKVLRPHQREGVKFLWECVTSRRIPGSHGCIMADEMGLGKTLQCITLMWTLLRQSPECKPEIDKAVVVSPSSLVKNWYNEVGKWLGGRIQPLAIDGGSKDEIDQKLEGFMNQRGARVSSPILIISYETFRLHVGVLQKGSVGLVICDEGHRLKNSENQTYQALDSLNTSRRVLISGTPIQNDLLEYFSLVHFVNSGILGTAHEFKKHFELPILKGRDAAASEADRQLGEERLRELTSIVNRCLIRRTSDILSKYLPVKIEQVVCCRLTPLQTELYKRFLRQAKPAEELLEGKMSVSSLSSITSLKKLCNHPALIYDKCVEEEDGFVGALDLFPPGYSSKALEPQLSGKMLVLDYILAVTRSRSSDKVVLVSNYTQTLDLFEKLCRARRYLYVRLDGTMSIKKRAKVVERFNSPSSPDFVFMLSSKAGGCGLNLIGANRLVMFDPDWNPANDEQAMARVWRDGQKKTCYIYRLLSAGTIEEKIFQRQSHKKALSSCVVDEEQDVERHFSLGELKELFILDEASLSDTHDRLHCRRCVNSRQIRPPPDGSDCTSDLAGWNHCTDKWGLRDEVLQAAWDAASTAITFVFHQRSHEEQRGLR

[8] = MIN6 cell viability loss – mouse insulinoma, cytotoxicity control, dose response (AID 2122); type: functional;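 note: confirmatory high-throughput counterscreen run to flag cytotoxic compounds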
[9] = target: Beta-galactosidase (Escherichia coli, UniProt Q8VNN2); assay: PubChem AID 485352; type: functional
Chain of Beta-galactosidase (Q8VNN2 whole entry): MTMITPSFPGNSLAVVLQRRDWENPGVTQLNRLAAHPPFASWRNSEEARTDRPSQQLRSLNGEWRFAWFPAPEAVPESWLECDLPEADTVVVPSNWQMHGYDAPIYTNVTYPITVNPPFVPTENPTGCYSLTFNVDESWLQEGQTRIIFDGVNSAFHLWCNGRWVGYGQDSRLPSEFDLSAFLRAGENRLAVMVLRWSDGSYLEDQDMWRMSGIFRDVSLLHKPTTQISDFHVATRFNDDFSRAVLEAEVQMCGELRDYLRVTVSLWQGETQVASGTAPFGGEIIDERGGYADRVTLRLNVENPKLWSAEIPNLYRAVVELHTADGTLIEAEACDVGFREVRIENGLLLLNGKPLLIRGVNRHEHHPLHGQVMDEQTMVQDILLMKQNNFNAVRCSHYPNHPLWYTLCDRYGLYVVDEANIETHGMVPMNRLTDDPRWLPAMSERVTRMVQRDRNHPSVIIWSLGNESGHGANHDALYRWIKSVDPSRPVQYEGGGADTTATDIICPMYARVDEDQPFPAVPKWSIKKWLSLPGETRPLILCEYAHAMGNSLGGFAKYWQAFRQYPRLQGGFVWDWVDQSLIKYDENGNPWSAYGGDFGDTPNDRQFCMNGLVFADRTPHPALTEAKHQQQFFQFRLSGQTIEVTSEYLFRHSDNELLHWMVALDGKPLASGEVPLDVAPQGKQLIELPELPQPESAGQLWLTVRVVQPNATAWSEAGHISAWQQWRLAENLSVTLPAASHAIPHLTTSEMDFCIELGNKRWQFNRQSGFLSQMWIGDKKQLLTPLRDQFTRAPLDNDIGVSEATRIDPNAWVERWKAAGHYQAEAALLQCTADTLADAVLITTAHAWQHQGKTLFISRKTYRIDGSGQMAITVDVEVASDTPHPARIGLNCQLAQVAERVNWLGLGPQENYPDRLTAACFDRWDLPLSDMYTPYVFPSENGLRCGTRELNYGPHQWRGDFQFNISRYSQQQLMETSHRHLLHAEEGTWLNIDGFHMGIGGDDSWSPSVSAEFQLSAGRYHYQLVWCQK

[10] = target: Type-1 angiotensin II receptor (Homo sapiens, UniProt P30556); assay: antagonism of angiotensin II type 1 receptor – cell-based, uHTS hits, selectivity assay for APJ receptor antagonist project, dose response (AID 463214); type: functional;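 note: antagonist potency against angiotensin II stimulated AT1 response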
Chain of Type-1 angiotensin II receptor (P30556 whole entry): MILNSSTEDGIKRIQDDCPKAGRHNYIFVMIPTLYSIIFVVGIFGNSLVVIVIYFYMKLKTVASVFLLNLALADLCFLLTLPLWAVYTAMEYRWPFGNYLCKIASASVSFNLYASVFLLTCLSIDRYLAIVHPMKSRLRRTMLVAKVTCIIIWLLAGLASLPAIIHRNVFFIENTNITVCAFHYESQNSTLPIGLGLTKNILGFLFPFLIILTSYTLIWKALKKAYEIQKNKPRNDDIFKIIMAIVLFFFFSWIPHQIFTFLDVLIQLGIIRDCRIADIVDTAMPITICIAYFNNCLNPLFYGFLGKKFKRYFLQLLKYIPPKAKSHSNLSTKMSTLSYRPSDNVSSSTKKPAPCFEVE

[11] = viability loss in HEK293 cells – cell-based, plate reader, cherry-picked samples, cytotoxicity control, dose response (AID 743446); type: functional
[12] = blockers of bursicon-stimulated LGR2 cAMP reporter – cell-based, HEK293, CRE-luciferase reporter, cherry pick, set 2, dose response (AID 743343); type: functional;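 note: transfected cells were stimulated with diluted bursicon conditioned medium after compound addition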
[13] = blockade of melanocortin 4 receptor signaling – cell-based, plate reader, cherry pick, counter-screen for LGR2 antagonist project, dose response (AID 743444); type: functional;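 note: transfected HEK 293 cells stimulated with alpha-MSH peptide; potency of inhibitors of the alpha-MSH evoked signal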
[14] = A549 cell cytotoxicity, dose response, cytotoxicity control, plate reader, cherry-pick, antagonist series (AID 743412); type: functional, cell-based
[15] = target: T2, Microphthalmia-associated transcription factor (Homo sapiens, UniProt O75030); assay: reducers of TRPM1 reporter luminescence, concentration series – cell-based, SK-MEL-5, cherry-picked, set 3, MITF inhibitor project, dose response (AID 493073); type: functional;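 note: SK-MEL-5 melanoma cells with luciferase driven by the MITF target TRPM1 promoter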
T2 sequence (O75030 whole entry): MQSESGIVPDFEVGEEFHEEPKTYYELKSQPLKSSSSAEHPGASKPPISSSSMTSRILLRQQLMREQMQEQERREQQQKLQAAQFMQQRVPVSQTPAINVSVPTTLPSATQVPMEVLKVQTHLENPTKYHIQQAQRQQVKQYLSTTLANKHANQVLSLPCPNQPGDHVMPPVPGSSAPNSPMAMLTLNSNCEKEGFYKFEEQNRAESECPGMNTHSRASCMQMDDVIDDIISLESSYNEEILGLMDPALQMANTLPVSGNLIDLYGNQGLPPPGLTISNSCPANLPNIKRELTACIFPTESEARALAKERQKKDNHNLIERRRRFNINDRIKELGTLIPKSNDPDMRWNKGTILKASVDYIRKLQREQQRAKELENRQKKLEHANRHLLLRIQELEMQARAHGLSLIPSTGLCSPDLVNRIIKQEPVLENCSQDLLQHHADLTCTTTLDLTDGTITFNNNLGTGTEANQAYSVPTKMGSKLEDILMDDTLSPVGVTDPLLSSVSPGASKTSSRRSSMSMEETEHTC

[16] = tested on: A-375; assay: MITF: Counter assay: A375 proliferation Measured in Cell-Based System Using Plate Reader - 2084-03_Inhibitor_Dose_DryPowder_Activity. [Related pubchem assays (depositor defined):AID488944]; type: functional; conditions: Homo sapiens
[17] = target: T3, DNA repair protein RAD52 homolog (Homo sapiens, UniProt P43351); type: functional, biochemical
T3 sequence (P43351 whole entry): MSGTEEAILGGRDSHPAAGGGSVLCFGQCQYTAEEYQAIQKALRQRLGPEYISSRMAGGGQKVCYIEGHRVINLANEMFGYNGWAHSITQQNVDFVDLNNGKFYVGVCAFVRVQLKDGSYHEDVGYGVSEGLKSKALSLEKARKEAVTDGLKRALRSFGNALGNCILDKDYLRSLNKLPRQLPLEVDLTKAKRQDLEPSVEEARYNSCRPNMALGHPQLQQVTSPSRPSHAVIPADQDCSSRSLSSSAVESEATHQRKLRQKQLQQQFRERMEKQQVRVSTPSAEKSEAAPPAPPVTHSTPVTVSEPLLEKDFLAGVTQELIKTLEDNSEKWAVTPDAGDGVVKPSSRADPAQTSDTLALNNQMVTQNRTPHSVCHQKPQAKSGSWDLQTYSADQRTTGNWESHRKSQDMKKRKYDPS

[18] = tested on: Escherichia coli; assay: microbe, parasite or virus in culture
[19] = target: T4, Cytochrome P450 1A2 (Homo sapiens, UniProt P05177);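 note: PubChem cytochrome P450 panel assay, CYP1A2 panel member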
T4 sequence (P05177 whole entry): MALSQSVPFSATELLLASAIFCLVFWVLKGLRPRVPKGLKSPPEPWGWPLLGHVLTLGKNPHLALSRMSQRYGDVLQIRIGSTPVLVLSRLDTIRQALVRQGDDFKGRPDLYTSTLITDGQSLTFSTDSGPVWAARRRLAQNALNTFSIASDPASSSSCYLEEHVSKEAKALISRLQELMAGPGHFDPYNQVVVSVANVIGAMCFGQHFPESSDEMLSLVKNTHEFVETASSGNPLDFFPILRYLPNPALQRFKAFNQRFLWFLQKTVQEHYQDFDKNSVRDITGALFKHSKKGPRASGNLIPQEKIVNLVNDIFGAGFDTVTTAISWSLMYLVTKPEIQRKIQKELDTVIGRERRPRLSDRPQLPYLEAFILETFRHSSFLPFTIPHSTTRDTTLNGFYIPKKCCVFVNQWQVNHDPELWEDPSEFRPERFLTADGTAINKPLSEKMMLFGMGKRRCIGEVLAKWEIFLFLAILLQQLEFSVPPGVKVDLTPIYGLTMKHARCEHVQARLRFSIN

[20] = target: Cytochrome P450 2C19 (Homo sapiens, UniProt P33261); assay: Cytochrome panel assay with activity outcomes. Panel member name: p450-cyp2c19 Compounds with AC50 equal or less than 10 uM are considered active; type: functional; conditions: read-out: AC50
Chain of Cytochrome P450 2C19 (P33261 whole entry): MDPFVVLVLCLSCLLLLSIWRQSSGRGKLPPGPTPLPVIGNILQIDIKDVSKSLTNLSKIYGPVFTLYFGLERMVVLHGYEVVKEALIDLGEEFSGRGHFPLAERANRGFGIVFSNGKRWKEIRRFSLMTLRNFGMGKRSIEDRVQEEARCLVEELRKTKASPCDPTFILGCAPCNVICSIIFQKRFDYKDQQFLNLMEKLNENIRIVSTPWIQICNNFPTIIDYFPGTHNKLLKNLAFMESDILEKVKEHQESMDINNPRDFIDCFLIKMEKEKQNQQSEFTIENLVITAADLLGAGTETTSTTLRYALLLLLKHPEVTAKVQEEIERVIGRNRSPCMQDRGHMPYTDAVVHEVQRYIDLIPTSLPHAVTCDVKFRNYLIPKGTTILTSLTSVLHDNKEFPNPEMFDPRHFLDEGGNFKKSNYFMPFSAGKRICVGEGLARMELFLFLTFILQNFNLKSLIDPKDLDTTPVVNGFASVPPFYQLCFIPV

[21] = tested on: A-375; assay: proliferation inhibition in MITF-low A375 cells – cell-based, cherry-pick samples, set 2, counter-screen for MITF modulator project, dose response (AID 540335); type: functional; conditions: Homo sapiens
[22] = target: Serine/threonine-protein phosphatase (Candida dubliniensis (strain CD36 / CBS 7987 / NCPF 3949 / NRRLY-17841) (Yeast), UniProt B9W6M3); assay: blockers of CaCl2-induced CDRE-lacZ signaling – S. cerevisiae, luminescence, secondary, dose response (AID 2388); type: functional, cell-based;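 note: yeast reporter cells carrying a calcineurin-responsive lacZ construct stimulated with calcium chloride; luminescent beta-galactosidase reporter signal in whole cells rather than isolated phosphatase activity; potency for inhibition where a drop in reporter signal means calcineurin blockade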
Chain of Serine/threonine-protein phosphatase (B9W6M3 whole entry): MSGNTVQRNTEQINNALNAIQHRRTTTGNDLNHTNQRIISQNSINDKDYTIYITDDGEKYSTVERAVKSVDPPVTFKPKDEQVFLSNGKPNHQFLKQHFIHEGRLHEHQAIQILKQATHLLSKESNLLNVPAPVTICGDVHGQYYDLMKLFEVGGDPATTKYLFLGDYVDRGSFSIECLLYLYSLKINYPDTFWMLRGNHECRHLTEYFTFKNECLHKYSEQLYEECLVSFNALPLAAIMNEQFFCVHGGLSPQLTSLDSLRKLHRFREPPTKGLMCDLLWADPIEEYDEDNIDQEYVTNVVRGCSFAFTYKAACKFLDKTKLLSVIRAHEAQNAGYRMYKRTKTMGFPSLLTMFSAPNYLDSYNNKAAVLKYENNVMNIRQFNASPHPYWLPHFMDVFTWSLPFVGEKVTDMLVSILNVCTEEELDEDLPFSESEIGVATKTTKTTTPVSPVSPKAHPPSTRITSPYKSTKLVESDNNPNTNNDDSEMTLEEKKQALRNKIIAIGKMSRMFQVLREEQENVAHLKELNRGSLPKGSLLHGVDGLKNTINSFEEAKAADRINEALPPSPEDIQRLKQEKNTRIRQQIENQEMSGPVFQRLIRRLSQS

[23] = fluconazole-exposed Candida albicans growth modulators – fluorescence, retest, confirmation (AID 2467); type: functional, cell-based
[24] = NIH-3T3 fibroblast cytotoxicity, dose response, cytotoxicity control, cell-based, fluorescence, Alamar Blue, secondary assay (AID 2327); type: functional;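 note: NIH-3T3 mouse fibroblasts cultured with fluconazole at 8 µg/mL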
[25] = target: ATP-dependent molecular chaperone HSP82 (Candida albicans (strain WO-1) (Yeast), UniProt C4YTQ8); assay: steroid-induced GRE reporter decrease in yeast – S. cerevisiae, luminescence, Hsp90 inhibitor project, dose response (AID 2400); type: functional, cell-based;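 note: beta-galactosidase luminescence from glucocorticoid response element reporter as proxy for Hsp90 function; inhibitor potency where signal loss means Hsp90 inhibition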
Chain of ATP-dependent molecular chaperone HSP82 (C4YTQ8 whole entry): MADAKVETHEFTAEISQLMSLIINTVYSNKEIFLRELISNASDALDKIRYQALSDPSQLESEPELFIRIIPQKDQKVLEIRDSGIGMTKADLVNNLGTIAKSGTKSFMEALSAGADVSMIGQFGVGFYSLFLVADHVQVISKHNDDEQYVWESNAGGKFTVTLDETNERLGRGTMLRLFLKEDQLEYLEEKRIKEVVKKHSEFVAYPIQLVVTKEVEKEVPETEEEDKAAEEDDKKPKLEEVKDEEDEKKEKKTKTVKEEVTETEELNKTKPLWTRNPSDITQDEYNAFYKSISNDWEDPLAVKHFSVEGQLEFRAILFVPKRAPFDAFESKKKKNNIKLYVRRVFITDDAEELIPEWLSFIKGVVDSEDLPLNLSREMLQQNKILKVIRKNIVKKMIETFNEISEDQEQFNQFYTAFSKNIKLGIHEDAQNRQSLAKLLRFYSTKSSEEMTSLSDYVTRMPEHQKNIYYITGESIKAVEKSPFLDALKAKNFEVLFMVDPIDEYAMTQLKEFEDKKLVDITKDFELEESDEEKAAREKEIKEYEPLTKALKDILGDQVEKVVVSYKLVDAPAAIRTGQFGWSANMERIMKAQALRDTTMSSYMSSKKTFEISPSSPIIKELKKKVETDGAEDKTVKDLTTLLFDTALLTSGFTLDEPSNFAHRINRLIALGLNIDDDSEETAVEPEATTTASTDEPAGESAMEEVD

[26] = target: Beta-lactamase (Salmonella choleraesuis (strain SC-B67), UniProt Q5J463)
Chain of Beta-lactamase (Salmonella choleraesuis (strain SC-B67), UniProt Q5J463) (Q5J463 whole entry): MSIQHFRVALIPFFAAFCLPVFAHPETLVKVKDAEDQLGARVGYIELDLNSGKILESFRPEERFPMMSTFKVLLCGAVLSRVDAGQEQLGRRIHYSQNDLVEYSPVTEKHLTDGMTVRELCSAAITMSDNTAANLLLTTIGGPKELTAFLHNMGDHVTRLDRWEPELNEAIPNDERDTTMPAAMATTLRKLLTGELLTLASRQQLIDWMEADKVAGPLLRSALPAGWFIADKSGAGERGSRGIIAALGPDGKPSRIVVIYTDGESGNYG

[27] = target: Beta-lactamase (Pseudomonas aeruginosa, UniProt Q79MP6);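 note: biochemical dose-response test of metallo-beta-lactamase enzyme inhibition, read out by epi-absorbance; purified recombinant IMP-1 metallo-beta-lactamase with nitrocefin as substrate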
Chain of Beta-lactamase (Pseudomonas aeruginosa, UniProt Q79MP6) (Q79MP6 whole entry): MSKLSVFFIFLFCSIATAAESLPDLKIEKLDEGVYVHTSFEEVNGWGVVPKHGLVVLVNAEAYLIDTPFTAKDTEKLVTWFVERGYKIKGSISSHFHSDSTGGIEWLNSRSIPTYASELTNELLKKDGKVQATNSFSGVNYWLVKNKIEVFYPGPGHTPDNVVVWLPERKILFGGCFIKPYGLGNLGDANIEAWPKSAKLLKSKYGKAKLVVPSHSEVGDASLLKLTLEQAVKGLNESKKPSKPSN

[28] = tested on: HEK293; assay: HEK293T cell viability loss, resazurin readout – resazurin fluorescence, cytotoxicity control for NF-kB activator project, SAR follow-up (AID 493251); type: functional, cell-based; conditions: Homo sapiens
[29] = tested on: Jurkat; assay: SAR Analysis of small molecule inhibitors of […] specific antigen receptor-induced NF-kB activation in a Jurkat cell line using a luminescence assay - Set 3. [Related pubchem assays (depositor defined):AID435022, AID435025, AID465]; type: functional, cell-based; conditions: Homo sapiens
[30] = tested on: HEK293; assay: SAR Analysis of small molecule inhibitors of B-cell specific antigen receptor-induced NF-kB activation in a HEK-293T cell line using a luminescence assay - Set 2. [Related pubchem assays (depositor defined):AID435022, AID435025, AID489021]; type: functional, cell-based; conditions: Homo sapiens
[31] = tested on: Jurkat; assay: blockers of NF-kB activation in T cells – Jurkat, luciferase reporter, luminescence, B- and T-cell, dose response (AID 489004); type: functional, cell-based; conditions: Homo sapiens;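 note: NF-kB luciferase reporter Jurkat cells stimulated with PMA plus ionomycin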
[32] = HEK-293T viability loss, compound-treated – cell-based, uHTS hits, cytotoxicity control for B/T-cell NF-kB inhibitor project, dose response (AID 489019); type: functional;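 note: IC50 reflects cytotoxicity as loss of cell viability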
[33] = cells
[34] = target: T5, COUP transcription factor 2 (Homo sapiens, UniProt P24468); assay: Luminescence-based cell-based high throughput dose response assay to identify inhibitors of COUP-TFII (NR2F2).; type: functional;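 note: HEK293 cells transiently cotransfected with COUP-TFII expression vector and reporter; luciferase reporter luminescence driven by COUP-TFII from the pX2-168 reporter plasmid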
T5 sequence (P24468 whole entry): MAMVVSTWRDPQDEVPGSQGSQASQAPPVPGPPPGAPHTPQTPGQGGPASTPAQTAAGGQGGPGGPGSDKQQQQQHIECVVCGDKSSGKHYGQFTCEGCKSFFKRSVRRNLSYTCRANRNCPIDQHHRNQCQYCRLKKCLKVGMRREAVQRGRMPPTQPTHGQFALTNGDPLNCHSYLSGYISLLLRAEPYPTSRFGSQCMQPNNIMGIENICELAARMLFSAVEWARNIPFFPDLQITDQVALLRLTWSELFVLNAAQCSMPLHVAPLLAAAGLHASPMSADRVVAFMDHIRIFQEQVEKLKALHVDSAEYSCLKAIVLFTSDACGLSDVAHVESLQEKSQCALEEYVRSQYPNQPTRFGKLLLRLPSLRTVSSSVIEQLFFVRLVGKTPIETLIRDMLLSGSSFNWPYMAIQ

Chain of Cytochrome P450 3A4 (P08684 whole entry): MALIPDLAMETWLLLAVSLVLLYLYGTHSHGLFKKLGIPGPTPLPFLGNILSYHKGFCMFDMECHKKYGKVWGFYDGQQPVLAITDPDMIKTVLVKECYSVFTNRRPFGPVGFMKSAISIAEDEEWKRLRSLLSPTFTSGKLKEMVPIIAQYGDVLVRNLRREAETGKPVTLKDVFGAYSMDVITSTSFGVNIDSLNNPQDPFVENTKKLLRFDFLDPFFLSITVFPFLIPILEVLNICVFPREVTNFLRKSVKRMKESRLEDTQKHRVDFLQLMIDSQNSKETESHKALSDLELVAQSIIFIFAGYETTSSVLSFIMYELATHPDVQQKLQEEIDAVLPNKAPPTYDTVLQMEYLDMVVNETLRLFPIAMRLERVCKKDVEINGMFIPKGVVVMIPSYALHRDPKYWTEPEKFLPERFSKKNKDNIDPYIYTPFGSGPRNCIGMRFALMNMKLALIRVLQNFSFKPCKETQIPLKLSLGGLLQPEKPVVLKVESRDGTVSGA
Chain of Cytochrome P450 2C9 (P11712 whole entry): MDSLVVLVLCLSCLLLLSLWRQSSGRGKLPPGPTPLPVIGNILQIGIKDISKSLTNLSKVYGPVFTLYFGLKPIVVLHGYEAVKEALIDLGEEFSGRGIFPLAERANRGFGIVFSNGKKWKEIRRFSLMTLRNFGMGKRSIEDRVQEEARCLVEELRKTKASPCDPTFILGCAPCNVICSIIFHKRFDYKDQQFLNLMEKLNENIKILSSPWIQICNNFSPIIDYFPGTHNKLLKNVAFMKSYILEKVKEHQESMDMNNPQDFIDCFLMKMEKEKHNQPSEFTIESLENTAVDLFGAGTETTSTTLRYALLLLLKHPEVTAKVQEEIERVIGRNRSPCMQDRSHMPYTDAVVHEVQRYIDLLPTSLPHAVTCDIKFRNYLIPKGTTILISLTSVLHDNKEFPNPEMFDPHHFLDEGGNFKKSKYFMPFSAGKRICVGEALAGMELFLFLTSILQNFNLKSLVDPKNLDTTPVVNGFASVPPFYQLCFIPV

## COc1ccc2c(=O)c(-c3ccccc3)c(C)oc2c1
[1]
  AC50: 10 µM (inconclusive)
[2]
  AC50: inconclusive

## Cc1cc(N2CCN(C)CC2)nc2ccc(NC(S)=NCCN3CCc4ccccc4C3)cc12
[3]
  IC50: 4.64 µM (active)
[4]
  CC50: 15.9 µM (active)
[5]
  EC50: 0.683 µM (active)
[6]
  EC50: > 60 µM (not active)
[7]
  AC50: 20.4 µM (active)
[8]
  IC50: 4.81 µM (active)

## CN(C)CC(=O)c1ccc(-c2ccccc2)cc1
[9]
  EC50: > 40 µM (inactive)
[10]
  IC50: > 40 µM (not active)

## CCCNC(=O)COC(=O)c1ccccc1C(=O)c1ccc(Cl)c([N+](=O)[O-])c1
[11]
  AC50: 10.7 µM (active)
[12]
  AC50: 8.85 µM (active)
[13]
  AC50: 10.6 µM (active)
[14]
  AC50: 7.32 µM (active)
[15]
  AC50: 8.34 µM (active)
[16]
  AC50: 34.3 µM (active)

## CCCCN(CC)CCN=C(S)Nc1ccc2nc(N3CCN(C)CC3)cc(C)c2c1
[17]
  AC50: 5.01 µM (active)
[18]
  AC50: 56 µM (active)
[5]
  EC50: 0.34 µM (active)
[6]
  EC50: 4.9 µM (active)
[7]
  AC50: 22.5 µM (active)

## O=C(c1ccccc1)c1c[nH]c(C(=O)NCCCN2CCOCC2)c1
[19]
  AC50: 25.1 µM (inconclusive)
[20]
  AC50: 0.0355 µM (inconclusive)
[2]
  AC50: inconclusive

## O=C(COc1ccc(Cl)cc1Cl)Nc1ccccn1
[15]
  AC50: 2.19 µM (active)
[21]
  AC50: 18.4 µM (active)

## COc1ccc(OC)c(-n2c(SCC(=O)N3CCc4ccccc43)nc3c(c2=O)SCC3)c1
[18]
  AC50: 71.1 µM (active)

## CC(C)n1cc(/C=C/c2cc[n+](C)cc2)c2ccccc21
[22]
  EC50: > 180 µM (inactive)
[23]
  EC50: 0.634 µM (active)
[24]
  EC50: 130 µM (inconclusive)
[25]
  EC50: > 150 µM (inactive)
[26]
  IC50: 40.1 µM (inactive)
[27]
  IC50: 41.8 µM (inactive)
[15]
  AC50: 8.14 µM (active)

## CCOc1ccc(-c2nc(CSCC(=O)NC(C)CC)c(C)o2)cc1 (stereo not drawn)
[28]
  IC50: 74.6 µM (inactive)
[29]
  IC50: > 80 µM (inactive)
[30]
  IC50: 35.7 µM (inactive)

## CC[n+]1c(C=C2C=C(C)OC(C)=C2)sc2ccccc21
[17]
  AC50: 8.17 µM (active)
[22]
  EC50: 29.6 µM (active)
[23]
  EC50: 0.239 µM (active)
[24]
  EC50: 126 µM (active)
[31]
  IC50: 3.99 µM (active)
[5]
  EC50: < 0.1 µM (active)
[25]
  EC50: 55.9 µM (active)
[6]
  EC50: > 60 µM (not active)
[32]
  IC50: > 80 µM (inactive)
[33]
  EC50: 0.006 µM (active)
[34]
  IC50: 4.51 µM (active)

Reference: ChEMBL document CHEMBL1201862, “PubChem BioAssay data set” (2004)
